Laboratory results from patent publication US6288059A, “Acylated hetero-alicyclic derivatives” (Sankyo Company, Limited, priority 1997, dated 2001).

Key:
NK2 receptors = conditions: relative to SR48968; Tachykinin in Health and Disease abstract, 1997; cited from earlier work
NK2 receptor = target: T1, NK2 receptor (Cavia porcellus, UniProt Q64077); assay: NK2 Receptor Binding Test ([3H]-SR-48968, crude ileum membrane fraction); parameters: species or system guinea pig (male Hartley); conditions: [3H]-SR-48968 1 nM; guinea pig ileum membrane; room temperature, 30 minutes; read-out: IC50 (50% binding drug concentration) (converted)
T1 construct: A crude membrane fraction was prepared from the ileum of male Hartley guinea pigs; from tissue; host or cells: ileum of male Hartley guinea pigs, crude membrane fraction
T1 sequence (Q64077 1-402): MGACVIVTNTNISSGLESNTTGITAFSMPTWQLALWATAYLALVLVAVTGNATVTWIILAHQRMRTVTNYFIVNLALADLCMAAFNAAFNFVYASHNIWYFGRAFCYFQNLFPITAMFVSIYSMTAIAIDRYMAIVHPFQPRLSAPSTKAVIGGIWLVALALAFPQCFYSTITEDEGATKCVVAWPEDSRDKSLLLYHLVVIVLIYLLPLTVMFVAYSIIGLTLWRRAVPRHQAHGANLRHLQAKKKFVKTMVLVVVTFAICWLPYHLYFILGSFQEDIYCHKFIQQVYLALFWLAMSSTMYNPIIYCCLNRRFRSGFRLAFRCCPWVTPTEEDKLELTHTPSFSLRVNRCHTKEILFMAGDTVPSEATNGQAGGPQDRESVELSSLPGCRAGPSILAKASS
Method: Test Example 2 NK2 Receptor Binding Test
(a) Preparation of crude ileum membrane fraction
A crude membrane fraction was prepared from the ileum of male Hartley guinea pigs. Namely, the guinea pigs were bled from the cava abdominalis under chloroform anaesthesia and the ileum was extracted immediately.
After the contents secreta and epithelium of the ilium had been scraped off using a glass slide, the extracted ileum was thinly cut in a buffer (1) (50 mM Tris-HCl, pH 7.4) and then homogenized in a buffer (2) [buffer (1) containing 120 mM sodium chloride and 5 mM potassium chloride] using a Polytron homogenizer.
The tissue mass was removed from the homogenate by filtration with a nylon mesh (50 μm) and the supernatant was centrifuged (30,000×g, 30 minutes, 4° C.).
The resultant pellet was resuspended in an ice-cooled buffer (3) [buffer (1) containing 10 mM EDTA and 300 mM potassium chloride], allowed to stand at 4° C. for 60 minutes and then washed centrifugally twice (30,000×g, 15 minutes, 4° C.).
The crude membrane fraction was preserved at -80° C. before use.
(b) Receptor Binding Test
To a mixed solution (250 μl) of the test compound and [^3 H]-SR.-48968 (Amasham Co., final concentration: 1 nM) (50 mM Tris-HCl, pH 7.4; 6 mM manganese chloride, 800 μg/ml BSA, 8 μg/ml chymostatin, 8 μg/ml leupeptin, 80 μg/ml bacitracin, 20 μg/ml phosphoramidon) was added the crude ileum membrane fraction solution (250 μl), followed by incubation at room temperature for 30 minutes.
After the reaction, a membrane ingredient was recovered on a GF/B glass fiber filter (Whatman Co.) using an automatic filtering device (Brandel Co.).
The glass filter was used after pretreatment with a 10% of polyethyleneimine solution for about 4 hours so as to inhibit non-specificbinding as much as possible.
The membrane ingredient-recovered filter was transferred to a mini-plastic vial containing a pico flow (4 ml) and the radioactivity was measured using a liquid scintillation counter (Beckman Co., LSC3500) to determine the 50% binding drug concentration (IC50).

Row | IC50 (NK2 receptor) | Structure (SMILES) | NK2 receptor-selective antagonistic activity compared with SR.48968 (NK2 receptors)
1 |  | CN(C)C(=O)NC1(c2ccccc2)CCN(CC[C@@]2(c3ccc(F)c(F)c3)CN(C(=O)c3ccccc3)CCO2)CC1 [SR144190] | more potent than that of SR.48968
2 | 1.67 nM | O=C(C1CCC1)N1CCOC(CCN2CCC3(CC2)c2ccccc2C[S+]3[O-])(c2ccc(Cl)c(Cl)c2)C1 [Example 1, 1-{2-[(2R)-(3,4-dichlorophenyl)-4-(cyclobutanecarbonyl)morpholin-2-yl]ethyl}spiro[benzo[c]thiophene-1(3H),4'-piperidine]-(2S)-oxide] | 
3 | 1.58 nM | O=C(C1CCCC1)N1CCOC(CCN2CCC3(CC2)c2ccccc2C[S+]3[O-])(c2ccc(Cl)c(Cl)c2)C1 [Example 3, 1-{2-[(2R)-(3,4-dichlorophenyl)-4-(cyclopentanecarbonyl)morpholin-2-yl]ethyl}spiro[benzo[c]thiophene-1(3H),4'-piperidine]-(2S)-oxide] | 
4 | 1.39 nM | O=C(C1CC1)N1CCOC(CCN2CCC3(CC2)c2ccccc2C[S+]3[O-])(c2ccc(Cl)c(Cl)c2)C1 [Example 2, 1-{2-[(2R)-(3,4-dichlorophenyl)-4-(cyclopropanecarbonyl)morpholin-2-yl]ethyl}spiro[benzo[c]thiophene-1(3H),4'-piperidine]-(2S)-oxide] | 
